“Also recorded” adds a separate entry of the source. Read-outs that look alike come from different tables or passages of the source. Where no end group is shown, it is not given here.
Tests used:
[1] = target: T1, SCRIB-1 (Homo sapiens, UniProt Q14160); test: Competition ELISA, peptide affinity for PDZ domain; assay type: binding
T1 construct: synthetic peptide that targets SCRIB PDZ domains 1, 2, and 3; GST; made in house; host or cells: E. coli
Description: (§1) Peptides were synthesized with acetylated C termini. The binding affinities of peptides for PDZ domains were determined as 50% inhibition concentration (IC50) values using competition ELISAs, as described. The IC50 value was defined as the concentration of peptide that blocked 50% of PDZ domain binding to immobilized peptide.

[2] = target: T2, SCRIB-2 (Homo sapiens, UniProt Q14160); test: Competition ELISA, peptide affinity for PDZ domain; assay type: binding
T2 construct: synthetic peptide that targets SCRIB PDZ domains 1, 2, and 3; GST; made in house; host or cells: E. coli
T2 sequence (Q14160 862-950 limits assumed): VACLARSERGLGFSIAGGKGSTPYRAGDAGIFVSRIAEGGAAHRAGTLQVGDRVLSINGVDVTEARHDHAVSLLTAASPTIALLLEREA
Description: as §1

[3] = target: T3, SCRIB-3 (Homo sapiens, UniProt Q14160); test: Competition ELISA, peptide affinity for PDZ domain; assay type: binding
T3 construct: synthetic peptide that targets SCRIB PDZ domains 1, 2, and 3; GST; made in house; host or cells: E. coli
T3 sequence (Q14160 1004-1093 limits assumed): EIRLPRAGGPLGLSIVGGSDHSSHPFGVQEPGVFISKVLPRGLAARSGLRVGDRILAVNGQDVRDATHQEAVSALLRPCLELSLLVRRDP
Description: as §1

[4] = target: T4, first PDZ domain of ZO-1 (TJP1–1) (Homo sapiens, UniProt Q07157); test: biochemical; assay type: binding
T4 construct: the first PDZ domain of ZO-1 (TJP1–1); GST; made in house; host or cells: E. coli
T4 sequence (Q07157 23-110 limits assumed): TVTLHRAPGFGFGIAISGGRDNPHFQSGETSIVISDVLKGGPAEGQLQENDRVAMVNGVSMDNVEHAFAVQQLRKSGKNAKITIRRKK

[5] = tested on: SCRIB PDZ domains; test: Competition ELISA, binding to the SCRIB PDZ domains; set-up: species or system Human
Description: as §1

[6] = tested on: Naive Crtam−/− CD4 T cells; test: T cell polarization, Talin staining; assay type: cell-based; details: Crtam−/− CD4 T cells electroporated with Crtam plasmid; peptide 1.0 μM; restimulated after 6 h, fixed 14 h later
Description: (§2) Naïve Crtam^−/− CD4 T cells were purified and activated with plate-bound anti-CD3 and anti-CD28, as described. On day 4, T cells were electroporated with 4 μg of pIRES_GFP or pIRES_GFP/Crtam plasmid DNA by Amaxa Nucleofector (program X-01). Synthetic peptides (1.0 μM) were added into the cultures, and after 6 h, transfected cells were restimulated at 1 × 10^6 cells/ml with plate-bound antibodies and were fixed 14 h later for Talin staining. After 42 h, [^3H]-thymidine (1 μCi/well) was added, and the plates were harvested 8 h later.

[7] = tested on: Naive Crtam−/− CD4 T cells; test: T cell proliferation, [3H]-thymidine incorporation; assay type: cell-based; details: Crtam−/− CD4 T cells electroporated with Crtam plasmid; peptide 1.0 μM; [3H]-thymidine added after 42 h, harvested 8 h later; representative of three independent experiments
Description: as §2

T1 sequence (Q14160 728-815 limits assumed): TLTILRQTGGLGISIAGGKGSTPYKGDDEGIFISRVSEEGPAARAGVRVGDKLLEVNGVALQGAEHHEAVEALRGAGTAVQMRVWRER

Substance: Ac-KMARAARSKV-OH [peptide 11]
- IC50 [1]: > 500 µM
- IC50 [2]: > 500 µM
- IC50 [3]: > 500 µM
- IC50 [4]: > 500 µM
- Interaction with the SCRIB PDZ domains (in words) [5]: does not

Substance: Ac-RQIKIWFQNRRMKWKKRSWFEAWA (N-terminus assumed) [peptide 15]
- Effect on late phase of T cell polarization (Talin staining) [6]: has no effect
- Effect on T cell proliferation ([3H]-thymidine incorporation) [7]: has no effect
- Interaction with the SCRIB PDZ domains (in words) ([5]; in vitro, synthesized peptides): nonbinding

Substance: Ac-PPRRHRETYV (N-terminus assumed) [peptide 12]
- Interaction with the ZO-1 PDZ domain (TJP1–1) (in words) [4]: bound to both
- Interaction with the SCRIB PDZ domains (in words) [5]: bound to both

Substance: Ac-RRRKRKRTYL (N-terminus assumed) [peptide 13]
- Interaction with the ZO-1 PDZ domain (TJP1–1) (in words) [4]: interacted only with this domain
- Interaction with the SCRIB PDZ domains (in words) [5]: interacted only with this domain

Substance: Ac-KMERTIESEV [compound 10]
- Interaction with the SCRIB PDZ domains (in words) [5]: interact with the SCRIB PDZ domains

Substance: Ac-RQIKIWFQNRRMKWKKRSWFETWV (N-terminus assumed) [peptide 14]
- Effect on late phase of T cell polarization (Talin staining) [6]: causes loss of late-phase T cell polarization
- Effect on T cell proliferation ([3H]-thymidine incorporation) [7]: triggers T cell proliferation; also recorded: reverses the hypoproliferative effects of Crtam
- Interaction with the SCRIB PDZ domains (in words) ([5]; in vitro, synthesized peptides): binds to the SCRIB PDZ domains with high affinity

Substance: Ac-HMARRVESEV [compound 9]
- Interaction with the SCRIB PDZ domains (in words) [5]: interact with the SCRIB PDZ domains
